From ChEMBL document CHEMBL1201862, “PubChem BioAssay data set” (2004)
Each block holds one compound with its values, some of them ahead of it. Calls of active or inactive are those of the source.

Tests used:
[1] = viability of HCT116 lacking mutant beta-catenin – cell-based, human colon tumor, dose response (AID 1045); format: functional;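 also: HCT116 colon tumor cells with beta catenin knocked out; cells exposed to compound for 60 hours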
[2] = viability of PTEN-deleted HCT116 cells – cell-based, HCT116 PTEN knockout, dose response (AID 1047); format: functional;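 also: HCT116 colon tumor cells with PTEN knocked out; cells exposed to compound for 60 hours before readout; potency for loss of cell viability measured by luminescence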
[3] = target: Glucose-6-phosphate 1-dehydrogenase (Homo sapiens, UniProt P11413); assay: inhibition of Homo sapiens G6PD, dose series – biochemical, fluorescence, selectivity assay for P. falciparum G6PD inhibitor project, dose response (AID 504792); format: functional
[4] = target: Peroxisome proliferator-activated receptor gamma/Nuclear receptor coactivator 1 (Homo sapiens, UniProt P37231); assay: TR-FRET dose response biochemical High Throughput Screening assay for agonists of the steroid receptor coactivator 1 (SRC-1) recruitment by the peroxisome proliferator-activated receptor gamma (PPAR gamma): non-selective agonists. [Related pubchem assays (depositor defined):AID1300, AID1808, AID504735, AID631]; format: protein assay
Genome polyprotein = Genome polyprotein (dengue virus type 2, UniProt P29990); assay: flavivirus cap methylation enzyme inhibition – biochemical, confirmation dose response, primary screen (AID 588689); format: functional
[5] = target: Peroxisome proliferator-activated receptor gamma/Nuclear receptor coactivator 2 (Homo sapiens, UniProt P37231); assay: (§1) TR-FRET dose response biochemical High Throughput Screening assay for agonists of the steroid receptor coactivator 2 (SRC-2) recruitment by the peroxisome proliferator-activated receptor gamma (PPAR gamma): non-selective agonists. [Related pubchem assays: 1297, 1032 ]; format: functional
[6] = target: Peroxisome proliferator-activated receptor gamma/Nuclear receptor coactivator 3 (Homo sapiens, UniProt P37231); assay: as §1, with “3 (SRC-3)” for “2 (SRC-2)”, “1301 (Confirmation screen.), 1048 (Primary screen.)]” for “1297, 1032 ]”; format: functional
[7] = target: T1, Rac GTPase-activating protein 1 (Homo sapiens, UniProt Q9H0H5); assay: blockers of MgcRacGAP-driven Rac1 GTP hydrolysis – biochemical, ADP Hunter fluorescence, primary and confirmatory, confirmation (AID 624330); format: functional
T1 sequence (Q9H0H5 whole entry): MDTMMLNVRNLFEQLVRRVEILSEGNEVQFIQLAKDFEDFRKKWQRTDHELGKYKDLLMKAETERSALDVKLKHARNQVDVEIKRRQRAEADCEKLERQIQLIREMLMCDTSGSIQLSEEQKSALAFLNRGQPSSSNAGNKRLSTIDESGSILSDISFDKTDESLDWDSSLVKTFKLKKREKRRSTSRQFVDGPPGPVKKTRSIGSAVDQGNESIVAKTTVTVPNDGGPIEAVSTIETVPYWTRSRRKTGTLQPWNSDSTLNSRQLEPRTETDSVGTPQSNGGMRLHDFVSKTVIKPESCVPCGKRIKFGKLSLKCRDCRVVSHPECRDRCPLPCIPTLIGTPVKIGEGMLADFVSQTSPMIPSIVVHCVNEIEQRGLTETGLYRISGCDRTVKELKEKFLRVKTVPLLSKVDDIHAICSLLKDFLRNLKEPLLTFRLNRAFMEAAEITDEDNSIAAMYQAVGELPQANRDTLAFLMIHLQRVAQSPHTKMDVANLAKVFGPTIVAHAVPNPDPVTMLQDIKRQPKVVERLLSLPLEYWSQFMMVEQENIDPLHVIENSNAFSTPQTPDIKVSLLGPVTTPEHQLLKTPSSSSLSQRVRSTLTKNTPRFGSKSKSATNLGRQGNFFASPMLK

Large T antigen = Large T antigen (Simian virus 40, UniProt P03070); format: functional, Betapolyomavirus macacae;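 also: Confirmatory-stage PubChem screen for compounds that inhibit SV40 T antigen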
[8] = target: T2, Hepatocyte nuclear factor 4-alpha (Homo sapiens, UniProt P41235); format: functional, cell-based;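 also: biochemical luminescence-based dose-response counterscreen measuring inhibition of HNF4 dimerization, run alongside a screen for blockers of ABHD5–perilipin-5 interaction; split luciferase complementation of HNF4 fusion proteins in cell lysate measuring dimerization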
T2 sequence (P41235 whole entry): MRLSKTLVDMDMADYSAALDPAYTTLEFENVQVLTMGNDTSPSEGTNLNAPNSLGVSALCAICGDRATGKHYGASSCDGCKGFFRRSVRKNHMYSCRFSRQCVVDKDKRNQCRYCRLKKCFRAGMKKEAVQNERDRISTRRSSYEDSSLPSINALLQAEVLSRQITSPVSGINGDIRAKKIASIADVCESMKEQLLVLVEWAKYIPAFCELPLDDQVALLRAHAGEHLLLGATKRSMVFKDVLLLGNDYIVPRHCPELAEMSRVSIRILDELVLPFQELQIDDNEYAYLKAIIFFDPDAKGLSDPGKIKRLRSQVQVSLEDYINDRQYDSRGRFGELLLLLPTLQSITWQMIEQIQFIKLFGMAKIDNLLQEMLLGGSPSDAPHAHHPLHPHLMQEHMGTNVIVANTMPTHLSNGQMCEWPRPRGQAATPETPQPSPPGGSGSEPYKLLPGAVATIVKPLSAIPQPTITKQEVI

[9] = target: T3, DNA repair and recombination protein RAD54-like (Homo sapiens, UniProt Q92698); assay: RAD54 Holliday junction migration blockers – biochemical, fluorescence, cherry-picked samples, dose series, confirmation (AID 651657); format: functional
T3 sequence (Q92698 whole entry): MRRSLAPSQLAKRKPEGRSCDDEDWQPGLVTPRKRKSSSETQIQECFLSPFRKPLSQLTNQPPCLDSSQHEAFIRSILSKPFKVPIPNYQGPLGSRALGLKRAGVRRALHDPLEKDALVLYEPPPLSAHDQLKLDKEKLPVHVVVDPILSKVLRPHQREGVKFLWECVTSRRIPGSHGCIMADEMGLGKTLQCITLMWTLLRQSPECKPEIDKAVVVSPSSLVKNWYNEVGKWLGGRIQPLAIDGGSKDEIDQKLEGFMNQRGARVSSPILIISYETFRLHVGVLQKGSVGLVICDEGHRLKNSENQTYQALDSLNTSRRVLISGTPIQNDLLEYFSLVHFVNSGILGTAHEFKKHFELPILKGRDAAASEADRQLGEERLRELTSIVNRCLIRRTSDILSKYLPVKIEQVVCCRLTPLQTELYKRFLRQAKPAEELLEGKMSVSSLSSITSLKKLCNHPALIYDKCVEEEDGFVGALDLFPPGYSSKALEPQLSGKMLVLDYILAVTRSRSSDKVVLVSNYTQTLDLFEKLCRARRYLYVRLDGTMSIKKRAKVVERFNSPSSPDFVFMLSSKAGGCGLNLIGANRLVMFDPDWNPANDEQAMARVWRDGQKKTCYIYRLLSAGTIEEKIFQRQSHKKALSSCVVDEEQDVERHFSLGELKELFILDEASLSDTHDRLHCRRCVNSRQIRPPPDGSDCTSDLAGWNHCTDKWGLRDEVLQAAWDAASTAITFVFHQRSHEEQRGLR

[10] = target: T4, Heat shock factor protein 1 (Mus musculus, UniProt P38532); assay: decrease of HSF1-responsive luciferase luminescence – cell-based, NIH3T3, dose retest, confirmation (AID 2382); format: functional;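 also: NIH3T3 fibroblasts with HSF1-driven luciferase reporter stressed by proteasome inhibitor MG132; luminescence from HSF1-driven luciferase expression after 8 hours of MG132 stress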
T4 sequence (P38532 whole entry): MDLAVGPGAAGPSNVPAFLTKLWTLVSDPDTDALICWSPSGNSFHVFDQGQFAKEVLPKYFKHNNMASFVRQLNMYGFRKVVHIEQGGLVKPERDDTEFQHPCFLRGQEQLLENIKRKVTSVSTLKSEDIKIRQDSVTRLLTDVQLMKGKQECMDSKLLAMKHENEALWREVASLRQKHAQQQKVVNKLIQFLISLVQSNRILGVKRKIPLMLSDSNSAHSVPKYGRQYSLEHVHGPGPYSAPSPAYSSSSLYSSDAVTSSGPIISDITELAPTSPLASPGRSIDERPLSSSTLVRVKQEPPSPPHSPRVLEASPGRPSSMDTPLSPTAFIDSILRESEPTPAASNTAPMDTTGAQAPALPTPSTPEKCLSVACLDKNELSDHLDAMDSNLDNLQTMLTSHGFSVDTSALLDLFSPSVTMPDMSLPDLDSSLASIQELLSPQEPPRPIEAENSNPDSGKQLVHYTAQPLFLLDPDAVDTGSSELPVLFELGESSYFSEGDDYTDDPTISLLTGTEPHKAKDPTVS

[11] = target: T5, DNA repair protein RAD52 homolog (Homo sapiens, UniProt P43351); format: functional, biochemical
T5 sequence (P43351 whole entry): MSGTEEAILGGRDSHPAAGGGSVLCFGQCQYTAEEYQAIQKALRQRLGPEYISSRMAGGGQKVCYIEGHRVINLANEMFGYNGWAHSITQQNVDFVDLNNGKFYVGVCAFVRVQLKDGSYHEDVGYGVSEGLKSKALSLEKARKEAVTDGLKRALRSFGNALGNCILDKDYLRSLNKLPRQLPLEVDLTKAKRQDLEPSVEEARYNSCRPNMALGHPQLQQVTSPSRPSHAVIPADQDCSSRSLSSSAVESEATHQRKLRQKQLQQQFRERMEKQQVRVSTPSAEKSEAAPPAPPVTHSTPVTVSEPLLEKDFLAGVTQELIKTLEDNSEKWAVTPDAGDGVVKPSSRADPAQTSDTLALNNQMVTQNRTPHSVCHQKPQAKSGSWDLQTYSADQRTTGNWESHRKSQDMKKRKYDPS

[12] = target: T6, Short transient receptor potential channel 4 (Mus musculus, UniProt Q9QUQ5); assay: calcium entry via TRPC4 opening agents – cell-based, HEK293 TRPC4/mu-opioid, Fluo-4 calcium, dose response (AID 434937); format: functional
T6 sequence (Q9QUQ5 whole entry): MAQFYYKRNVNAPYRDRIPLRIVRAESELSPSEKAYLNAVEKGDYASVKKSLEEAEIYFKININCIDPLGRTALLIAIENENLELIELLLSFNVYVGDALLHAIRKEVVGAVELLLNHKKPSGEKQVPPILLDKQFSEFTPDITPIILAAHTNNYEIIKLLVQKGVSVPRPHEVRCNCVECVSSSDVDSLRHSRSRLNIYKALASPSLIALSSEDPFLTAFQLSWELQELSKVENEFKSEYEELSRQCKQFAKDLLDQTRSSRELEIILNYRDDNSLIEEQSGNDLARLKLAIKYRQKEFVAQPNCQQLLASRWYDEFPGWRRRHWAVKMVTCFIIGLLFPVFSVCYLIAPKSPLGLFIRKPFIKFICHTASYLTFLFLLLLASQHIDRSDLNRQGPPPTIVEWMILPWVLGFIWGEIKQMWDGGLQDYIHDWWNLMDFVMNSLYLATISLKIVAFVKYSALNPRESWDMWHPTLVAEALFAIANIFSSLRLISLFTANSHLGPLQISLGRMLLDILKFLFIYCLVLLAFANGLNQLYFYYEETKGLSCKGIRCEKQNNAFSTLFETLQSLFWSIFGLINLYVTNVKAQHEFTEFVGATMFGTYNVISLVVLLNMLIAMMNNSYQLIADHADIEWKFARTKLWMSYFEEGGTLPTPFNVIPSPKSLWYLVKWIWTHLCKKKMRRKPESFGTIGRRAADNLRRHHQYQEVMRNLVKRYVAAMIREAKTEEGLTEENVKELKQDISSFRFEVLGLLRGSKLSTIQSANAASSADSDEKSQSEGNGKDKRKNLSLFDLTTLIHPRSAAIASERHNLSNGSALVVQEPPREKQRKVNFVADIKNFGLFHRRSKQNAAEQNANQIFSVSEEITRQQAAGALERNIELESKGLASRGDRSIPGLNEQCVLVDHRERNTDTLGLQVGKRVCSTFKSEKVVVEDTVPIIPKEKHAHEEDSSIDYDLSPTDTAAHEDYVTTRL

[13] = target: T6, Short transient receptor potential channel 4; assay: block of DAMGO-driven TRPC4 calcium entry – cell-based, HEK293 TRPC4/mu-opioid, Fluo-4 calcium, dose response (AID 434942); format: functional;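 also: potency of inhibitors blocking the TRPC4 calcium response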

Peroxisome proliferator-activated receptor gamma/Nuclear receptor coactivator 2, sequence (P37231 whole entry): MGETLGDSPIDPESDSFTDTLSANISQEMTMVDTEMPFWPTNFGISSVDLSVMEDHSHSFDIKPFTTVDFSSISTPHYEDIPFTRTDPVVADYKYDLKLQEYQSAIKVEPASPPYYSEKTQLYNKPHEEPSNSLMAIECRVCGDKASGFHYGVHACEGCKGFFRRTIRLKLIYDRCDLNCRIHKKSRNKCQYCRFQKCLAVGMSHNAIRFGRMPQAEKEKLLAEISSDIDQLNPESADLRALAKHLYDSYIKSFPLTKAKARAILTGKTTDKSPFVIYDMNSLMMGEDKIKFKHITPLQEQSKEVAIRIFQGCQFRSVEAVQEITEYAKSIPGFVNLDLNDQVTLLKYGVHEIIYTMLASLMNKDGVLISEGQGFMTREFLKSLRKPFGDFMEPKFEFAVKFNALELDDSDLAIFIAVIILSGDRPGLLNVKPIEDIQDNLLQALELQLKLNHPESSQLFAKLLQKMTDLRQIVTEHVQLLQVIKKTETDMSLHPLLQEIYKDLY
Peroxisome proliferator-activated receptor gamma/Nuclear receptor coactivator 2, sequence (Q15596 whole entry, further chain): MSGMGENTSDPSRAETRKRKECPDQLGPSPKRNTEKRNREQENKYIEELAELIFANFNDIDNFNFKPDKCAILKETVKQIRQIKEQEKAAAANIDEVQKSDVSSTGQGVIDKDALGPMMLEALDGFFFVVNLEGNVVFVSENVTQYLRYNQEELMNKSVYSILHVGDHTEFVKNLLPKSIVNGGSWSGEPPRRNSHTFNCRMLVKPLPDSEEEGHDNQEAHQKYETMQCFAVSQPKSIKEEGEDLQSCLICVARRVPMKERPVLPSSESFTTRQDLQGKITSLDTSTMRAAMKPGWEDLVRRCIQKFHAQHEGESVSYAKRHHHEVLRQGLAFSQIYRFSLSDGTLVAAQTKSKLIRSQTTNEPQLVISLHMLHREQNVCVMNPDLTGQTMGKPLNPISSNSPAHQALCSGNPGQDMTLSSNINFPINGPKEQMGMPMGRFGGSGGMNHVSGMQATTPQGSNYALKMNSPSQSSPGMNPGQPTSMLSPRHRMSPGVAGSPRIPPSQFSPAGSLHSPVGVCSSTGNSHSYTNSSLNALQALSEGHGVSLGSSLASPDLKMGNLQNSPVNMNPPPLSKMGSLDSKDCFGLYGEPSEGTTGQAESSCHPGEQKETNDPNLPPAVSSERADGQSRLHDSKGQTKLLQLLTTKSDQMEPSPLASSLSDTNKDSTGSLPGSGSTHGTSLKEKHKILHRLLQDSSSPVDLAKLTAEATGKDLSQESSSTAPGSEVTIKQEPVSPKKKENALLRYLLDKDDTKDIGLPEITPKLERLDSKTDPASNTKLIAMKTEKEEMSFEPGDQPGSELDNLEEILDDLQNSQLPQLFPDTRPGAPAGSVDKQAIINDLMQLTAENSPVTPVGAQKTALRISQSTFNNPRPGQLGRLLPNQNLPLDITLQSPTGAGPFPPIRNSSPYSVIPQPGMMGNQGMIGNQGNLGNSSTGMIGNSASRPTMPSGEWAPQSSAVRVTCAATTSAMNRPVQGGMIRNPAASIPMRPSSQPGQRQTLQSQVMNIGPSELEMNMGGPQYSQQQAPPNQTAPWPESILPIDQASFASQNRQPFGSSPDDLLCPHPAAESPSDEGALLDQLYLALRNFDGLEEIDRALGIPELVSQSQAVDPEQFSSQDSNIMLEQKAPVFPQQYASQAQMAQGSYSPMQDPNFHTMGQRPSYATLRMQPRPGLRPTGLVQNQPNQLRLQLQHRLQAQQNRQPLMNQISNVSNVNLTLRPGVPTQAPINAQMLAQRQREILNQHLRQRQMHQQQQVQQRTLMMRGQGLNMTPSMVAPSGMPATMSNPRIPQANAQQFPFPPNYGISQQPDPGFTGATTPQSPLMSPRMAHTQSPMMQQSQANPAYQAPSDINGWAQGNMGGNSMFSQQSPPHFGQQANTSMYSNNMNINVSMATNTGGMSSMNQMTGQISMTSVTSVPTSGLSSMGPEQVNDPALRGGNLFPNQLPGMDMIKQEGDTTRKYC
Peroxisome proliferator-activated receptor gamma/Nuclear receptor coactivator 1, sequence (P37231 whole entry): as the sequence (P37231 whole entry) above
Peroxisome proliferator-activated receptor gamma/Nuclear receptor coactivator 1, sequence (Q15788 whole entry, further chain): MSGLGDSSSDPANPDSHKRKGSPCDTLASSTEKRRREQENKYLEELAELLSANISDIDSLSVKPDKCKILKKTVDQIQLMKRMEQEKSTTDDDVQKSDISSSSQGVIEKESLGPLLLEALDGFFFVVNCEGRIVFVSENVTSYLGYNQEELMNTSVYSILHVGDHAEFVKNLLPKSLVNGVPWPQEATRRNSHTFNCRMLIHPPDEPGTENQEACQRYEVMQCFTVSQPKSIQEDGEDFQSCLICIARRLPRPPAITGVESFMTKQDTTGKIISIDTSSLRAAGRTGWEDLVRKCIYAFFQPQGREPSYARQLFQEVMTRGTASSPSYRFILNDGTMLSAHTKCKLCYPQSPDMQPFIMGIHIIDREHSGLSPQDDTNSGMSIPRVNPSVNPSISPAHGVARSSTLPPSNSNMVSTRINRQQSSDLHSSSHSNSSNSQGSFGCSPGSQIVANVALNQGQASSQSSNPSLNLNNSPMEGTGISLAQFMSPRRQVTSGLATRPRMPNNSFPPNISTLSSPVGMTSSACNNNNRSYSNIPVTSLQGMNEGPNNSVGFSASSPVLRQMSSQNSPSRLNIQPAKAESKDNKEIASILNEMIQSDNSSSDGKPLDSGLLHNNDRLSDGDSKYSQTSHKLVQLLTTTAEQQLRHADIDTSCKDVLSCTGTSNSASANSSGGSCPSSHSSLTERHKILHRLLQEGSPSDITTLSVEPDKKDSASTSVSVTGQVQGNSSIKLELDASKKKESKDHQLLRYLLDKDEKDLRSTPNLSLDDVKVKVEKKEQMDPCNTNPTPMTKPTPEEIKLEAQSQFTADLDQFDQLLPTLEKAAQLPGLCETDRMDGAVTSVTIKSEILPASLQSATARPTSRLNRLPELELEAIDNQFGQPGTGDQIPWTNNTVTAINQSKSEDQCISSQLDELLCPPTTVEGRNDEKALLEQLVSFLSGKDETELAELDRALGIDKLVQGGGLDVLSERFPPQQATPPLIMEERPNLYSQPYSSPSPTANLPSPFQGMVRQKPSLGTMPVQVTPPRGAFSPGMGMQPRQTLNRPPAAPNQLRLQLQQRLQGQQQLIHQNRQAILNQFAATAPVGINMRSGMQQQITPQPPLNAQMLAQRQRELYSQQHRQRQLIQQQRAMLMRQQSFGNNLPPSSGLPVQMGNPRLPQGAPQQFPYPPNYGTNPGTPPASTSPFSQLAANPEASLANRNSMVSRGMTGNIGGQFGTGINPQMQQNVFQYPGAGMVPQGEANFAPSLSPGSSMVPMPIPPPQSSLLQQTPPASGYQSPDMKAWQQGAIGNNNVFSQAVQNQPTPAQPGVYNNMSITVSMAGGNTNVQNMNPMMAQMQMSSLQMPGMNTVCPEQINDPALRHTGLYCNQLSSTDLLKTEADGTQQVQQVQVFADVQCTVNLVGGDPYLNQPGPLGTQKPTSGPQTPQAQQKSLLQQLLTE
Genome polyprotein, sequence (P29990 2492-3391 limits assumed): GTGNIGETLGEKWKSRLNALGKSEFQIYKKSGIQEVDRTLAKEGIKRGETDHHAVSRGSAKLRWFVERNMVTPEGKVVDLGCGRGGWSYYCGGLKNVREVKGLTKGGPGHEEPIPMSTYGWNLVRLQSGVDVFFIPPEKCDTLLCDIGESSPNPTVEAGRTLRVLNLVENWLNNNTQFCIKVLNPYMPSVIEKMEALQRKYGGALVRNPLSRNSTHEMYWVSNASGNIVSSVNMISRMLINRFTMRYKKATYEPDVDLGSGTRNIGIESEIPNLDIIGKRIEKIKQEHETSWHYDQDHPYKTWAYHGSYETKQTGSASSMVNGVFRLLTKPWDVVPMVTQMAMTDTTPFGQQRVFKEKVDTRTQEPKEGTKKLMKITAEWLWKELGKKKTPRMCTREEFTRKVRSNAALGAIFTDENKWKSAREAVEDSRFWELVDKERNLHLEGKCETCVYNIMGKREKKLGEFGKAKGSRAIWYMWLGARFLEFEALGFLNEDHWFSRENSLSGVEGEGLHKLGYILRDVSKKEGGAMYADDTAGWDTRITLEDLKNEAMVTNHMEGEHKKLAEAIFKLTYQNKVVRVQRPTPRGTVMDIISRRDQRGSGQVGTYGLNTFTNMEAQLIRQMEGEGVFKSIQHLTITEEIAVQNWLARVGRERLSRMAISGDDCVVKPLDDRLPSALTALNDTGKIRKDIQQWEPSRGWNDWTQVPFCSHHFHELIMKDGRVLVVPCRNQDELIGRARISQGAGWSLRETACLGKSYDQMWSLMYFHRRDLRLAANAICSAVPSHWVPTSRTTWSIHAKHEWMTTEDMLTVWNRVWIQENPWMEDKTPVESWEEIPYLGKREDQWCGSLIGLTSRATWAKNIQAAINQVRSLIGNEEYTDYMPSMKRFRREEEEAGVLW

Compound: CC1=CC(=NOC(=O)/C=C/c2ccccc2)C=C(C)C1=O
EC50 [1]: 13.6 µM (active) | EC50 [2]: 14 µM (active) | IC50 [3]: > 80 µM (inactive)

Compound: O=S(=O)(NC1=NCCCCC1)c1ccc2sc(NS(=O)(=O)c3ccc4ccccc4c3)nc2c1
IC50 [7]: 156 µM (active) | IC50 (Large T antigen): 39.4 µM (active) | IC50 [8]: 9.21 µM (active)

Compound: O=C(Nc1nc2c(s1)COc1ccccc1-2)c1cccs1
EC50 [4]: 28.5 µM (inactive) | EC50 [5]: 19.7 µM (not active) | EC50 [6]: > 79.4 µM (not active)

Compound: Cc1ccc(S(=O)(=O)Nc2nc(-c3ccc(F)cc3)cs2)cc1
IC50 (Genome polyprotein): 70.6 µM (active)

Compound: COc1ccc(/C=C/C(=O)c2cc(F)ccc2OC(=O)c2ccc(OC)c(OC)c2)cc1OC
IC50 [8]: 5.27 µM (active)

Compound: COc1ccccc1Nc1nc(NCCCN(C)C)nc(N)c1[N+](=O)[O-]
AC50 [9]: 11.1 µM (active) | EC50 [10]: > 195 µM (not active) | AC50 [11]: 5.59 µM (active)

Compound: CN(C)CCNC(=O)c1c(NC(=O)c2ccccc2)sc2c1CCCC2
EC50 [12]: 5.96 µM (active) | AC50 [9]: 56.4 µM (active)

Compound: Cc1ccc(S(=O)(=O)NCCC(=O)NCC(c2ccco2)N2CCCCC2)cc1C (stereo unspecified)
EC50 [12]: 0.944 µM (active) | EC50 [13]: 168 nM (active)

Further lines, results first:

EC50 [4]: > 79.4 µM (inactive) | IC50 (Genome polyprotein): 60.6 µM (active) | EC50 [5]: > 79.4 µM (not active) | EC50 [6]: 8.27 µM (active)
Compound: COc1cc(/C=C(\C#N)C(=O)Nc2ccccc2C(=O)O)cc(Cl)c1OC

EC50 [4]: 6.3 µM (active) | EC50 [5]: 4.73 µM (active) | EC50 [6]: 3.26 µM (active)
Compound: CC(Nc1ccc(Br)cn1)c1cc(Cl)ccc1O (stereo unspecified)

IC50 (Genome polyprotein): 37 µM (active)
Compound: Cc1ccc(-c2csc3nc(SCC(=O)Nc4ccc(Cl)c(C(=O)O)c4)nc(O)c23)cc1

EC50 [4]: 446 µM (inactive) | EC50 [5]: 29.8 µM (not active) | EC50 [6]: > 79.4 µM (not active)
Compound: Cc1onc(-c2c(F)cccc2Cl)c1C(=O)Nc1nnc(-c2ccccc2)s1

AC50 [9]: 10.3 µM (active) | AC50 [11]: 10 µM (active)
Compound: CCN(CC)Cc1cc(Nc2ccnc3cc(Cl)ccc23)ccc1O
